Assays:
[1] = target: T1, A-Raf (Homo sapiens, UniProt P10398); experiment: Kinase activity assay, A-Raf
T1 sequence (P10398 1-606): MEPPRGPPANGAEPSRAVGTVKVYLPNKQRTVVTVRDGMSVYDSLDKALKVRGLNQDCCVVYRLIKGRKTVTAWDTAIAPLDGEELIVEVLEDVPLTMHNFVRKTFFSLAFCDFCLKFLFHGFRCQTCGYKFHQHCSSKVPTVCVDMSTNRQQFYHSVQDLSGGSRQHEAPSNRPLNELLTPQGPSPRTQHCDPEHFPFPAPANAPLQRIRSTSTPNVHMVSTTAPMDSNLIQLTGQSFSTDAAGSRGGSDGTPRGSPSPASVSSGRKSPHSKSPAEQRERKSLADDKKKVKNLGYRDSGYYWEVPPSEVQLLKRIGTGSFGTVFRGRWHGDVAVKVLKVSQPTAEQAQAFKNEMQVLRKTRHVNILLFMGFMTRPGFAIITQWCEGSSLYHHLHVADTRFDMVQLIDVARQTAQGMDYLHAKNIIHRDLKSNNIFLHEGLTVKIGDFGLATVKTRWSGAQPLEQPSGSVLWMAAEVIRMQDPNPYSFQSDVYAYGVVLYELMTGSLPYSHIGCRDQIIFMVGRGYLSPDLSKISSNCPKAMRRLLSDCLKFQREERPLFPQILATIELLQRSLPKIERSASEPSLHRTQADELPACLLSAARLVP

[2] = target: B-Raf V600E (Homo sapiens, UniProt P15056, V600E); experiment: Kinase activity assay, B-Raf V600E; assay type: biochemical; conditions: read-out: activity toward kinase B-Raf V600E, IC50
B-Raf V600E, sequence (P15056 whole entry V600E): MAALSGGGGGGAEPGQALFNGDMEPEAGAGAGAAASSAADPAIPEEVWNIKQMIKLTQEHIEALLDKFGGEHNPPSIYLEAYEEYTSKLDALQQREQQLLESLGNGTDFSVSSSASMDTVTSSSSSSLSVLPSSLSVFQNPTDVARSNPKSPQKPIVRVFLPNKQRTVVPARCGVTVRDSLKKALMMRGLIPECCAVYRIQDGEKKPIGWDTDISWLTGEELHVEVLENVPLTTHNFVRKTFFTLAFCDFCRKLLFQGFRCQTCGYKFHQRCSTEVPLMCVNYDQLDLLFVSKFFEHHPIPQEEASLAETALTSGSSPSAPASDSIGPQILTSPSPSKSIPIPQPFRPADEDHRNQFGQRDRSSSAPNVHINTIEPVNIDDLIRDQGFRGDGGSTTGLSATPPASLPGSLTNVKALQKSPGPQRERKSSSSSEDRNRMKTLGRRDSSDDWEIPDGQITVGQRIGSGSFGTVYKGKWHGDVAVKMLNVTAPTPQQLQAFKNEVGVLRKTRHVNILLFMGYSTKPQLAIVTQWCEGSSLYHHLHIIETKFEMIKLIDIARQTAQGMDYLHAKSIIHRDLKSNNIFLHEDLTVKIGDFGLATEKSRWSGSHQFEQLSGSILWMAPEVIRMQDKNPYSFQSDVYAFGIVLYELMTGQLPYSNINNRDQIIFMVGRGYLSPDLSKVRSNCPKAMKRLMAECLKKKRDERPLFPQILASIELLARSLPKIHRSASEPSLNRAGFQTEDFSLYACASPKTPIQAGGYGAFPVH

[3] = target: B-Raf (Homo sapiens, UniProt P15056); experiment: Kinase activity assay, B-Raf; assay type: biochemical; conditions: read-out: activity toward kinase B-Raf, IC50
B-Raf, sequence (P15056 whole entry): as the sequence (P15056 whole entry V600E) above, with E600V counted along it

[4] = target: C-Raf (Homo sapiens, UniProt P04049); experiment: Kinase activity assay, C-Raf
C-Raf, sequence (P04049 whole entry): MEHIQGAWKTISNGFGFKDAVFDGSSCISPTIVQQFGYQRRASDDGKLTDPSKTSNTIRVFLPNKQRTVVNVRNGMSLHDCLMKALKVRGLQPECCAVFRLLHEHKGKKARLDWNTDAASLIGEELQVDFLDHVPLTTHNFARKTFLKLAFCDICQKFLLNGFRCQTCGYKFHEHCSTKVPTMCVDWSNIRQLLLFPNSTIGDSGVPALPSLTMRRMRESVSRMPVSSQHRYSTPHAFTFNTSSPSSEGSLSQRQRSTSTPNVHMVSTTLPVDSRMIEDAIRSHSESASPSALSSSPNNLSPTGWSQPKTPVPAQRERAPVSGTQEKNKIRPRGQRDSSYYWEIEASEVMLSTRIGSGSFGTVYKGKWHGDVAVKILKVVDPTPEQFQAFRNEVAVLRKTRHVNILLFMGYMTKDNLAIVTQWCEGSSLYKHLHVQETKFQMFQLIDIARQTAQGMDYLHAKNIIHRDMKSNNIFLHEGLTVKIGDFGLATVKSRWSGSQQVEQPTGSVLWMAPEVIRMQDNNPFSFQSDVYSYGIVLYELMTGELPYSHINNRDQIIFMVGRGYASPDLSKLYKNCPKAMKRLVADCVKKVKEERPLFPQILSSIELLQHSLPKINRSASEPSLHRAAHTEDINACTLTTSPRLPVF

[5] = target: Kdr (Homo sapiens, UniProt P35968); experiment: Kinase activity assay, Kdr
Kdr, sequence (P35968 20-1356): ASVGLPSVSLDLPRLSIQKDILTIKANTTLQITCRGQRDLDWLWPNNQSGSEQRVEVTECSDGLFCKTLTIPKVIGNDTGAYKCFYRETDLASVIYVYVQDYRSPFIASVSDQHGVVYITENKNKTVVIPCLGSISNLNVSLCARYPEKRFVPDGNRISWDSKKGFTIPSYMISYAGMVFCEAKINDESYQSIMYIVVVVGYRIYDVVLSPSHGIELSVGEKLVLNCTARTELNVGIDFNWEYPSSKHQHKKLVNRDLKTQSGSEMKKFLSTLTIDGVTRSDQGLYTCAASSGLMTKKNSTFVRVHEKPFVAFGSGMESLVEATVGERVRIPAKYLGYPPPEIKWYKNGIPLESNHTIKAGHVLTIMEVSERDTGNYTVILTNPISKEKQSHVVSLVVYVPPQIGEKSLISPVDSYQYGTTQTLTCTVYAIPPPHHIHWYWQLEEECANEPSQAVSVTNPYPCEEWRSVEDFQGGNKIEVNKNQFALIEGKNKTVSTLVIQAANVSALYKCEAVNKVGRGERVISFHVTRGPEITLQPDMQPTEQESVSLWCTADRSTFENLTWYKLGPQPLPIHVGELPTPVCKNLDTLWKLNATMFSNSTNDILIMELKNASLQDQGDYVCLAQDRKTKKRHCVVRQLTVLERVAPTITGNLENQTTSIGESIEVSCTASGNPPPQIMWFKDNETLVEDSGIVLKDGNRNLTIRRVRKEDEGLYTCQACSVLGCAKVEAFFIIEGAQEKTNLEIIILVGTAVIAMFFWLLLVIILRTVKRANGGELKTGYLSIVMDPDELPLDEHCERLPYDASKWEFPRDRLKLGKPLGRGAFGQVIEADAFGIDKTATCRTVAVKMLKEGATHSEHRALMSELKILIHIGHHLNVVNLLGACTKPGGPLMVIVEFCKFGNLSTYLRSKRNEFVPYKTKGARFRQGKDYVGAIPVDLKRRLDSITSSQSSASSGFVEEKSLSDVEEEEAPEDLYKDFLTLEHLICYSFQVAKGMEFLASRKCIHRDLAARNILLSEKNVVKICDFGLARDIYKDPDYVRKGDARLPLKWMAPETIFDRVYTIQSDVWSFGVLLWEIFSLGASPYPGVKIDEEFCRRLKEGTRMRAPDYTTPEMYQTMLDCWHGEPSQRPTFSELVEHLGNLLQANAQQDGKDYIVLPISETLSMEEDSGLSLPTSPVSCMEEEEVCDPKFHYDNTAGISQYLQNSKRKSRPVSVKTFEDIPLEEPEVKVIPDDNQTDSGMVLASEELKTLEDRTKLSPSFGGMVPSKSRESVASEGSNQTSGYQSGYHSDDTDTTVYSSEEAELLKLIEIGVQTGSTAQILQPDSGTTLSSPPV

[6] = target: Fms (Homo sapiens, UniProt P07333); experiment: Kinase activity assay, Fms
[7] = target: Src (Homo sapiens, UniProt P12931); experiment: Kinase activity assay, Src
Src, sequence (P12931 whole entry): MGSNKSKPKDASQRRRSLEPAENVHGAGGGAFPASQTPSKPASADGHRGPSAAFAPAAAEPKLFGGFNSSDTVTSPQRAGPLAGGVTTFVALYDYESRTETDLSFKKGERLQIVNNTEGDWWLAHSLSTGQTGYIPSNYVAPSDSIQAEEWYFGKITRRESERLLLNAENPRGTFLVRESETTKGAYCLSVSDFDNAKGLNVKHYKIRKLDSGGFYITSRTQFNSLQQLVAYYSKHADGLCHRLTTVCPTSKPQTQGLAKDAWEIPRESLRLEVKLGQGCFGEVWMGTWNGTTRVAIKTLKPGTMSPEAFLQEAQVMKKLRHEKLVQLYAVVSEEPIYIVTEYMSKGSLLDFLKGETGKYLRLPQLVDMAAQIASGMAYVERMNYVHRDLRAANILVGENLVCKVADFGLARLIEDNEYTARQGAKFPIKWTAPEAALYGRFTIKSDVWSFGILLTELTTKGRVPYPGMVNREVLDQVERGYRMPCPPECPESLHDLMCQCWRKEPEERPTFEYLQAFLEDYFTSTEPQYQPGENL

[8] = target: MAP4K4 (Homo sapiens, UniProt O95819); experiment: Kinase activity assay, MAP4K4
[9] = target: Kit (Homo sapiens, UniProt P10721); experiment: Kinase activity assay, Kit
Kit, sequence (P10721 26-976): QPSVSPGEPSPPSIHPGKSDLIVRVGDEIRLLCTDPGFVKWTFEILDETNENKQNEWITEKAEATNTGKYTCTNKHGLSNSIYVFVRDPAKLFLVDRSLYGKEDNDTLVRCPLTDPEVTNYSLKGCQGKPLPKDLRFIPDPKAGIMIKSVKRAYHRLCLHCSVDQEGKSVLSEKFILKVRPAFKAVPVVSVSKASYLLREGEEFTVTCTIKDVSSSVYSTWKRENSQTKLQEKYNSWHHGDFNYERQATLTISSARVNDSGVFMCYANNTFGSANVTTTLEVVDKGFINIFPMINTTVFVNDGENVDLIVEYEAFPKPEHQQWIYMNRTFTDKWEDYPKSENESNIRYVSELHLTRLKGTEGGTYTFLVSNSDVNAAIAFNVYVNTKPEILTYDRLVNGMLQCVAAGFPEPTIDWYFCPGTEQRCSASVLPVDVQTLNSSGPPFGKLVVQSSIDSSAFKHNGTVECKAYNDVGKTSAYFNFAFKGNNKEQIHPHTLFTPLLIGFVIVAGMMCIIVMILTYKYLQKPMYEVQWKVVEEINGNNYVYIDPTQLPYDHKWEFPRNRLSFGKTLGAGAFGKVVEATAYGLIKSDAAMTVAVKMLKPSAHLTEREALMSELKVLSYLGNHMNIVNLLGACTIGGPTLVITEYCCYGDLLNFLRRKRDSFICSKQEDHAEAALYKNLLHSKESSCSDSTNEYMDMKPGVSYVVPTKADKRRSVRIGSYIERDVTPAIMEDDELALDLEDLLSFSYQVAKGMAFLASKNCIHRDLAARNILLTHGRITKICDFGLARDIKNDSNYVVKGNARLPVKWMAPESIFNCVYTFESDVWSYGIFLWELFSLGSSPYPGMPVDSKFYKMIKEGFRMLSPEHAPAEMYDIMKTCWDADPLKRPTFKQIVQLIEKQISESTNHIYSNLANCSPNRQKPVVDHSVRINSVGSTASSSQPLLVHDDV

Compound | IC50 [1] | IC50 [2] | IC50 [3] | IC50 [4] | IC50 [5] | IC50 [6] | IC50 [7] | IC50 [8] | IC50 [9]
N#Cc1ccnc2[nH]cc(C(=O)c3c(F)ccc(NS(=O)(=O)c4cccnc4)c3F)c12 [P-2077, Pyridine-3-sulfonic acid [3-(4-cyano-1H-pyrrolo[2,3-b]pyridine-3-carbonyl)-2,4-difluoro-phenyl]-amide] | ≤ 10 µM | ≤ 10 µM | ≤ 10 µM | ≤ 10 µM |  |  |  |  | 
O=C(c1cc(NS(=O)(=O)c2ccc(C(F)(F)F)cc2)ccc1F)c1c[nH]c2ncccc12 [P-2119, N-[4-Fluoro-3-(1H-pyrrolo[2,3-b]pyridine-3-carbonyl)-phenyl]-4-trifluoromethyl-benzenesulfonamide] | ≤ 10 µM |  | ≤ 10 µM | ≤ 10 µM |  |  |  |  | 
CCCS(=O)(=O)Nc1ccc(F)c(C(=O)c2c[nH]c3nccc(Cl)c23)c1F [P-2208, Propane-1-sulfonic acid [3-(4-chloro-1H-pyrrolo[2,3-b]pyridine-3-carbonyl)-2,4-difluoro-phenyl]-amide] | ≤ 10 µM | ≤ 10 µM | ≤ 10 µM | ≤ 10 µM | ≤ 10 µM |  |  |  | 
CCCS(=O)(=O)Nc1ccc(F)c(C(=O)c2c[nH]c3ncc(-c4ccc(CCCOC)nc4)cc23)c1F [P-2226, Propane-1-sulfonic acid (2,4-difluoro-3-{5-[6-(3-methoxy-propyl)-pyridin-3-yl]-1H-pyrrolo[2,3-b]pyridine-3-carbonyl}-phenyl)-amide] |  | ≤ 10 µM | ≤ 10 µM | ≤ 10 µM | ≤ 10 µM | ≤ 10 µM | ≤ 10 µM | ≤ 10 µM | ≤ 10 µM
CCCS(=O)(=O)Nc1ccc(F)c(C(=O)c2c[nH]c3ncc(-c4cccc(S(C)(=O)=O)c4)cc23)c1F [P-2228, Propane-1-sulfonic acid {2,4-difluoro-3-[5-(3-methanesulfonyl-phenyl)-1H-pyrrolo[2,3-b]pyridine-3-carbonyl]-phenyl}-amide] |  | ≤ 10 µM | ≤ 10 µM | ≤ 10 µM | ≤ 10 µM | ≤ 10 µM | ≤ 10 µM | ≤ 10 µM | ≤ 10 µM
O=C(c1c(F)ccc(NS(=O)(=O)C2CCC2)c1F)c1c[nH]c2nccc(Cl)c12 [P-2363, Cyclobutanesulfonic acid [3-(4-chloro-1H-pyrrolo[2,3-b]pyridine-3-carbonyl)-2,4-difluoro-phenyl]-amide] | ≤ 10 µM | ≤ 10 µM | ≤ 10 µM | ≤ 10 µM | ≤ 10 µM |  |  |  | 
N#Cc1ccnc2[nH]cc(C(=O)c3c(F)ccc(NS(=O)(=O)C4CCC4)c3F)c12 [P-2370, Cyclobutanesulfonic acid [3-(4-cyano-1H-pyrrolo[2,3-b]pyridine-3-carbonyl)-2,4-difluoro-phenyl]-amide] | ≤ 10 µM | ≤ 10 µM | ≤ 10 µM | ≤ 10 µM | ≤ 10 µM |  |  |  | 
CCN(CC)S(=O)(=O)Nc1ccc(F)c(C(=O)c2c[nH]c3nccc(Cl)c23)c1F [P-2387, N,N-diethylamino-sulfonic acid [3-(4-chloro-1H-pyrrolo[2,3-b]pyridine-3-carbonyl)-2,4-difluoro-phenyl]-amide] | ≤ 10 µM | ≤ 10 µM |  |  | ≤ 10 µM |  |  |  | 
N#Cc1ccnc2[nH]cc(C(=O)c3c(F)ccc(NS(=O)(=O)N4CCOCC4)c3F)c12 [P-2395, Morpholine-4-sulfonic acid [3-(4-cyano-1H-pyrrolo[2,3-b]pyridine-3-carbonyl)-2,4-difluoro-phenyl]-amide] | ≤ 10 µM | ≤ 10 µM | ≤ 10 µM | ≤ 10 µM |  |  |  |  | 

Results, then the compound that gave them:

IC50 [1] | IC50 [2] | IC50 [3] | IC50 [4] | IC50 [5] | IC50 [6] | IC50 [7] | IC50 [8] | IC50 [9] | Compound
≤ 10 µM | ≤ 10 µM | ≤ 10 µM | ≤ 10 µM | ≤ 10 µM |  |  |  |  | CCCS(=O)(=O)Nc1ccc(F)c(C(=O)c2c[nH]c3ncc(CCC(=O)NOC)cc23)c1F [P-2243, 3-{3-[2,6-Difluoro-3-(propane-1-sulfonylamino)-benzoyl]-1H-pyrrolo[2,3-b]pyridin-5-yl}-N-methoxy-propionamide]
≤ 10 µM | ≤ 10 µM | ≤ 10 µM | ≤ 10 µM | ≤ 10 µM |  |  |  |  | CCCS(=O)(=O)Nc1ccc(F)c(C(=O)c2c[nH]c3ncc(CCC(=O)N(CC)CC)cc23)c1F [P-2255, 3-{3-[2,6-Difluoro-3-(propane-1-sulfonylamino)-benzoyl]-1H-pyrrolo[2,3-b]pyridin-5-yl}-N,N-diethyl-propionamide]
≤ 10 µM | ≤ 10 µM | ≤ 10 µM | ≤ 10 µM |  |  |  |  |  | CCCS(=O)(=O)Nc1ccc(F)c(C(=O)c2c[nH]c3ncc(CN(CC)CC)cc23)c1F [P-2258, Propane-1-sulfonic acid [3-(5-diethylaminomethyl-1H-pyrrolo[2,3-b]pyridine-3-carbonyl)-2,4-difluoro-phenyl]-amide]
≤ 10 µM | ≤ 10 µM | ≤ 10 µM | ≤ 10 µM |  |  |  |  |  | CCCS(=O)(=O)Nc1ccc(F)c(C(=O)c2c[nH]c3ncc(CN4CCCC4)cc23)c1F [P-2259, Propane-1-sulfonic acid [2,4-difluoro-3-(5-pyrrolidin-1-ylmethyl-1H-pyrrolo[2,3-b]pyridine-3-carbonyl)-phenyl]-amide]
≤ 10 µM | ≤ 10 µM | ≤ 10 µM | ≤ 10 µM |  |  |  |  |  | CCS(=O)(=O)Nc1ccc(F)c(C(=O)c2c[nH]c3nccc(C#N)c23)c1F [P-2283, Ethanesulfonic acid [3-(4-cyano-1H-pyrrolo[2,3-b]pyridine-3-carbonyl)-2,4-difluoro-phenyl]-amide]
≤ 10 µM | ≤ 10 µM | ≤ 10 µM | ≤ 10 µM |  |  |  |  |  | CC(C)S(=O)(=O)Nc1ccc(F)c(C(=O)c2c[nH]c3nccc(C#N)c23)c1F [P-2285, Propane-2-sulfonic acid [3-(4-cyano-1H-pyrrolo[2,3-b]pyridine-3-carbonyl)-2,4-difluoro-phenyl]-amide]
≤ 10 µM | ≤ 10 µM |  | ≤ 10 µM |  |  |  |  | ≤ 10 µM | CCCC(C)S(=O)(=O)Nc1ccc(F)c(C(=O)c2c[nH]c3ncc(C#N)cc23)c1F (centres unmarked) [P-2314, Pentane-2-sulfonic acid [3-(5-cyano-1H-pyrrolo[2,3-b]pyridine-3-carbonyl)-2,4-difluoro-phenyl]-amide]
≤ 10 µM | ≤ 10 µM | ≤ 10 µM | ≤ 10 µM | ≤ 10 µM |  |  |  |  | CC(C)CS(=O)(=O)Nc1ccc(F)c(C(=O)c2c[nH]c3nccc(C#N)c23)c1F [P-2320, 2-Methyl-propane-1-sulfonic acid [3-(4-cyano-1H-pyrrolo[2,3-b]pyridine-3-carbonyl)-2,4-difluoro-phenyl]-amide]
 | ≤ 10 µM | ≤ 10 µM | ≤ 10 µM | ≤ 10 µM | ≤ 10 µM | ≤ 10 µM | ≤ 10 µM | ≤ 10 µM | O=C(c1c(F)ccc(NS(=O)(=O)CCC(F)(F)F)c1F)c1c[nH]c2ncc(Cl)cc12 [P-2324, 3,3,3-Trifluoro-propane-1-sulfonic acid [3-(5-chloro-1H-pyrrolo[2,3-b]pyridine-3-carbonyl)-2,4-difluoro-phenyl]-amide]
 | ≤ 10 µM | ≤ 10 µM | ≤ 10 µM | ≤ 10 µM | ≤ 10 µM | ≤ 10 µM | ≤ 10 µM | ≤ 10 µM | N#Cc1cnc2[nH]cc(C(=O)c3c(F)ccc(NS(=O)(=O)CCC(F)(F)F)c3F)c2c1 [P-2331, 3,3,3-Trifluoro-propane-1-sulfonic acid [3-(5-cyano-1H-pyrrolo[2,3-b]pyridine-3-carbonyl)-2,4-difluoro-phenyl]-amide]
≤ 10 µM | ≤ 10 µM |  |  | ≤ 10 µM |  |  |  |  | CCN(CC)S(=O)(=O)Nc1ccc(F)c(C(=O)c2c[nH]c3ncc(C#N)cc23)c1F [P-2385, N,N-diethylamino-sulfonic acid [3-(5-cyano-1H-pyrrolo[2,3-b]pyridine-3-carbonyl)-2,4-difluoro-phenyl]-amide]
≤ 10 µM | ≤ 10 µM |  |  | ≤ 10 µM |  |  |  |  | CCN(CC)S(=O)(=O)Nc1ccc(F)c(C(=O)c2c[nH]c3ncc(C)cc23)c1F [P-2386, N,N-diethylamino-sulfonic acid [2,4-difluoro-3-(5-methyl-1H-pyrrolo[2,3-b]pyridine-3-carbonyl)-phenyl]-amide]
≤ 10 µM | ≤ 10 µM |  |  |  |  |  |  |  | CCN(CC)S(=O)(=O)Nc1ccc(F)c(C(=O)c2c[nH]c3nccc(C#N)c23)c1F [P-2388, N,N-diethylamino-sulfonic acid [3-(4-cyano-1H-pyrrolo[2,3-b]pyridine-3-carbonyl)-2,4-difluoro-phenyl]-amide]

Reference: US20120122860A1, “SOLID FORMS OF SULFONAMIDES AND AMINO ACIDS” (Plexxikon, Inc., priority 2009, published 2012)
